Among the data in publication doi:10.1101/2024.10.07.617055v4 (biorxiv, 2026) are Km values, retold here.

Each structure is given as a SMILES string. Read-outs that look alike come from different tables or passages of the source.

For assay [1], the system named is 6H5L_RA2. Description: retro-aldol fluorescence assay. The format is biochemical, synthetic construct. The conditions noted are these: 50 mM sodium phosphate, 150 mM NaCl, 7.5% DMSO, pH 8, 29 °C.
The test system of assay [2] is 6H5L. The settings on record: 6H5L_K223; 50 mM sodium phosphate, 150 mM NaCl, 7.5% DMSO, pH 8, 29 °C.
For assay [3], the system named is 6H5L_RA1. Description: retro-aldol fluorescence assay. The format is biochemical, synthetic construct. The conditions noted are these: 50 mM sodium phosphate, 150 mM NaCl, 7.5% DMSO, pH 8, 29 °C.
Assay [4] has as its system 6H5L. Briefly: retro-aldol fluorescence assay. The format is biochemical, synthetic construct. The settings on record: 50 mM sodium phosphate, 150 mM NaCl, 7.5% DMSO, pH 8, 29 °C.
The test system of assay [5] is 6H5L_Top. Briefly: retro-aldol fluorescence assay. The format is biochemical, synthetic construct. The settings on record: 50 mM sodium phosphate, 150 mM NaCl, 7.5% DMSO, pH 8, 29 °C.

Turning to `COc1ccc2cc(C(O)CC(C)=O)ccc2c1` (racemic) [compound 3, 4-hydroxy-4-(6-methoxy-2-naphthyl)-2-butanone], the Km is 1550 ± 225 µM in assay [1]; 967 ± 211 µM in assay [2]; 1040 ± 128 µM in assay [3]; 371 ± 62 µM in assay [4]; 453 ± 49.3 µM in assay [5].
